In article PMC3388080 (PLoS ONE, 2012):

How the values were obtained:
male Sprague-Dawley rats = experiment: EEG/EMG/Tcore/LMA telemetry sleep study 1 (SB-334867 vs ZOL); format: in vivo, rat
Procedure: All rodent electroencephalograph (EEG) studies were performed at SRI International. Three groups of eight male Sprague-Dawley rats (300±25 g; Charles River, Wilmington, MA) were implanted with chronic recording devices (F40-EET, Data Sciences Inc., St Paul, MN) for continuous recordings of EEG, electromyograph (EMG), core body temperature (Tcore), and LMA via telemetry as previously described. Data recording and scoring were performed as previously reported (see also Supplemental Material and Methods). The EEG and EMG data were scored in 10 sec epochs for waking (W), rapid eye movement sleep (REM), and non-REM sleep (NR). Tcore and LMA (counts per minute) were analyzed as hourly means. Data from the EEG studies are reported in hourly means such that the hourly time ZT1 refers to the hour between time points ZT0 and ZT1.
For each of the three separate studies, a repeated measures counter-balanced design was employed in which each rat received five separate dosings. […] All dosings were administered ip in a volume of 2 ml/kg. A minimum of 3 d elapsed between doses. Dosing occurred during the middle of the rats’ normal active period at the start of ZT19 and was typically completed within 10 min. Animals were continuously recorded for 6 h prior to dosing and for 18 h following dosing.

[1] = test system: panel of 79 target receptors; experiment: CEREP selectivity screen, panel of 79 target receptors; format: binding; conditions: 10 µM; all targets except A2A, A3, MT3, P2Y, 5HT2C
Procedure: (§1) SB-334867 was evaluated in a selectivity screen performed at CEREP (Paris, France). The screen consisted of binding assays on a panel of 79 target receptors. The specific binding (SB) of a radioligand to each target receptor was defined as the difference between the total binding and the nonspecific binding determined in the presence of a cold competitor in excess. […] Details on the CEREP screen are available from www.cerep.fr.
Among the 79 receptors tested, 30 were peptide receptors. […] The selectivity profiles of almorexant and EMPA [37] have been reported previously.

[2] = molecular target: T1, TRH1 (h) (antagonist effect) (Homo sapiens, UniProt P34981); experiment: CEREP screen, antagonist effect; format: biochemical; conditions: % of control
T1 construct: purchased CEREP
T1 sequence (P34981 whole entry): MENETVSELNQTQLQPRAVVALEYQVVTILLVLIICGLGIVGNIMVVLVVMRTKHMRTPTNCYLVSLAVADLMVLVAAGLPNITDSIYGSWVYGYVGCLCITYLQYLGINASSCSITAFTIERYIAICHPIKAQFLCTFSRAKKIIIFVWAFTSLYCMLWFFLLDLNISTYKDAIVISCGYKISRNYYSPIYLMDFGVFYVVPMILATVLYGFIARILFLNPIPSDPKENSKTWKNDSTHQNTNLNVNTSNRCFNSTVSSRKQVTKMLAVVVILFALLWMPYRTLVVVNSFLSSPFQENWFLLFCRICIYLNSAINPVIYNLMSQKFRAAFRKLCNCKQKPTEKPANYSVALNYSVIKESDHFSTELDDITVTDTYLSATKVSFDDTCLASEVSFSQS
Procedure: as §1

Cc1nc2ccc(NC(=O)Nc3ccnc4cccnc34)cc2o1.Cl [SB-334867, 1-(2-methylbenzoxazol-6-yl)-3-[1], [5]naphthyridin-4-yl-urea hydrochloride]
REM bout duration (male Sprague-Dawley rats; ZT21, 10 mg/kg ip): 1.38 ± 0.21
W bout duration (male Sprague-Dawley rats; ZT21, 10 mg/kg ip): 2.72 ± 0.50
NR bout duration (male Sprague-Dawley rats; ZT21, 30 mg/kg ip): 1.27 ± 0.16
Number of NR bouts (male Sprague-Dawley rats; ZT21, 30 mg/kg ip): 16.75 ± 2.30
Number of REM bouts (male Sprague-Dawley rats; ZT21, 30 mg/kg ip): 5.63 ± 1.10
Number of W bouts (male Sprague-Dawley rats; ZT21, 30 mg/kg ip): 13.00 ± 1.90
REM bout duration (male Sprague-Dawley rats; ZT21, 30 mg/kg ip): 1.04 ± 0.11
W bout duration (male Sprague-Dawley rats; ZT21, 30 mg/kg ip): 2.98 ± 0.68
NR bout duration (in words) (male Sprague-Dawley rats; ZT21 at 30 mg/kg and ZT24 at 3 mg/kg): increased NR bout duration
NR bout duration (male Sprague-Dawley rats; ZT22, 3 mg/kg ip): 0.82 ± 0.13
Number of NR bouts (male Sprague-Dawley rats; ZT22, 3 mg/kg ip): 12.75 ± 2.22
Number of REM bouts (male Sprague-Dawley rats; ZT22, 3 mg/kg ip): 2.75 ± 1.10
Number of W bouts (male Sprague-Dawley rats; ZT22, 3 mg/kg ip): 13.38 ± 2.85
REM bout duration (male Sprague-Dawley rats; ZT22, 3 mg/kg ip): 1.10 ± 0.27
W bout duration (male Sprague-Dawley rats; ZT22, 3 mg/kg ip): 6.85 ± 3.36
NR bout duration (male Sprague-Dawley rats; ZT22, 10 mg/kg ip): 0.86 ± 0.10
Number of NR bouts (male Sprague-Dawley rats; ZT22, 10 mg/kg ip): 17.13 ± 2.47
Number of REM bouts (male Sprague-Dawley rats; ZT22, 10 mg/kg ip): 3.13 ± 0.67
Number of W bouts (male Sprague-Dawley rats; ZT22, 10 mg/kg ip): 14.13 ± 1.81
REM bout duration (male Sprague-Dawley rats; ZT22, 10 mg/kg ip): 1.16 ± 0.25
W bout duration (male Sprague-Dawley rats; ZT22, 10 mg/kg ip): 3.15 ± 0.53
NR bout duration (male Sprague-Dawley rats; ZT22, 30 mg/kg ip): 1.19 ± 0.23
Number of NR bouts (male Sprague-Dawley rats; ZT22, 30 mg/kg ip): 13.13 ± 2.17
Number of REM bouts (male Sprague-Dawley rats; ZT22, 30 mg/kg ip): 3.38 ± 1.03
Number of W bouts (male Sprague-Dawley rats; ZT22, 30 mg/kg ip): 16.00 ± 2.00
REM bout duration (male Sprague-Dawley rats; ZT22, 30 mg/kg ip): 1.25 ± 0.22
W bout duration (male Sprague-Dawley rats; ZT22, 30 mg/kg ip): 2.75 ± 0.54
NR bout duration (male Sprague-Dawley rats; ZT23, 3 mg/kg ip): 0.77 ± 0.08
Number of NR bouts (male Sprague-Dawley rats; ZT23, 3 mg/kg ip): 10.50 ± 2.01
Number of REM bouts (male Sprague-Dawley rats; ZT23, 3 mg/kg ip): 1.00 ± 0.42
Number of W bouts (male Sprague-Dawley rats; ZT23, 3 mg/kg ip): 9.00 ± 1.66
REM bout duration (male Sprague-Dawley rats; ZT23, 3 mg/kg ip): 0.63 ± 0.29
W bout duration (male Sprague-Dawley rats; ZT23, 3 mg/kg ip): 6.72 ± 1.58
NR bout duration (male Sprague-Dawley rats; ZT23, 10 mg/kg ip): 0.77 ± 0.13
Number of NR bouts (male Sprague-Dawley rats; ZT23, 10 mg/kg ip): 9.88 ± 1.88
Number of REM bouts (male Sprague-Dawley rats; ZT23, 10 mg/kg ip): 1.50 ± 0.63
Number of W bouts (male Sprague-Dawley rats; ZT23, 10 mg/kg ip): 8.88 ± 1.59
REM bout duration (male Sprague-Dawley rats; ZT23, 10 mg/kg ip): 1.12 ± 0.34
W bout duration (male Sprague-Dawley rats; ZT23, 10 mg/kg ip): 11.56 ± 6.94
NR bout duration (male Sprague-Dawley rats; ZT23, 30 mg/kg ip): 0.80 ± 0.14
Number of NR bouts (male Sprague-Dawley rats; ZT23, 30 mg/kg ip): 8.88 ± 2.17
Number of REM bouts (male Sprague-Dawley rats; ZT23, 30 mg/kg ip): 2.75 ± 1.08
Number of W bouts (male Sprague-Dawley rats; ZT23, 30 mg/kg ip): 8.38 ± 2.00
REM bout duration (male Sprague-Dawley rats; ZT23, 30 mg/kg ip): 0.75 ± 0.17
W bout duration (male Sprague-Dawley rats; ZT23, 30 mg/kg ip): 12.52 ± 6.85
NR bout duration (male Sprague-Dawley rats; ZT24, 3 mg/kg ip): 1.40 ± 0.24
Number of NR bouts (male Sprague-Dawley rats; ZT24, 3 mg/kg ip): 7.63 ± 2.02
Number of REM bouts (male Sprague-Dawley rats; ZT24, 3 mg/kg ip): 1.00 ± 0.42
Number of W bouts (male Sprague-Dawley rats; ZT24, 3 mg/kg ip): 7.00 ± 1.60
REM bout duration (male Sprague-Dawley rats; ZT24, 3 mg/kg ip): 1.13 ± 0.39
W bout duration (male Sprague-Dawley rats; ZT24, 3 mg/kg ip): 14.70 ± 7.18
NR bout duration (male Sprague-Dawley rats; ZT24, 10 mg/kg ip): 0.99 ± 0.18
Number of NR bouts (male Sprague-Dawley rats; ZT24, 10 mg/kg ip): 5.38 ± 1.45
Number of REM bouts (male Sprague-Dawley rats; ZT24, 10 mg/kg ip): 0.63 ± 0.26
Number of W bouts (male Sprague-Dawley rats; ZT24, 10 mg/kg ip): 5.25 ± 1.22
REM bout duration (male Sprague-Dawley rats; ZT24, 10 mg/kg ip): 0.48 ± 0.16^+
W bout duration (male Sprague-Dawley rats; ZT24, 10 mg/kg ip): 16.01 ± 6.44
NR bout duration (male Sprague-Dawley rats; ZT24, 30 mg/kg ip): 1.05 ± 0.12
Number of NR bouts (male Sprague-Dawley rats; ZT24, 30 mg/kg ip): 10.88 ± 1.90
Number of REM bouts (male Sprague-Dawley rats; ZT24, 30 mg/kg ip): 2.13 ± 0.55
Number of W bouts (male Sprague-Dawley rats; ZT24, 30 mg/kg ip): 8.63 ±1.29
REM bout duration (male Sprague-Dawley rats; ZT24, 30 mg/kg ip): 0.81 ± 0.12
W bout duration (male Sprague-Dawley rats; ZT24, 30 mg/kg ip): 5.39 ± 6.44
Tcore (in words) (male Sprague-Dawley rats; high concentration tested, across 6 h): decreased Tcore
activity at all other targets tested [1]: < 40%
% Control (10 µM) Mean SB [2]: 78.5%
